Measured values from publication PMC11054433, “Nature-Inspired 1-Phenylpyrrolo[2,1-a]isoquinoline Scaffold for Novel Antiproliferative Agents Circumventing P-Glycoprotein-Dependent Multidrug Resistance” (Pharmaceuticals, 2024).
Where “and” joins values, the source holds several entries; their conditions need not be identical. Equal entries are not always repeated. Where two headings read alike, the source gives them in different places.

Tests used:
[1] = Kinetic solubility in PBS by RP-HPLC; format: physicochemical; conditions: phosphate buffered saline, 25 °C, kinetic from dmso stock
Description: Sample solution at 200 μM in PBS (50 mM, pH 7.4, KCl 0.15 M) from a 10 mM stock solution in DMSO was incubated at room temperature (25 ± 1 °C) for 2 h, following shaking of the suspension on an orbital shaker at 250 rpm, and then separated by […]. Immediately after the filtration step, 100 µL of filtrate was transferred into 100 µL of 1:1 (v/v) mixture of DMSO and PBS (50 mM, pH 7.4, KCl 0.15 M), to avoid precipitation from the saturated solution and analyzed by HPLC. The peak area was plotted against a calibration curve of the tested compound in MeOH [21]. Analytical conditions were as follows. Mobile Phase: MeOH/ammonium formate 20 mM pH 4.7 (70:30, 75:25); MeOH 0.1% TFA/H2O 0.1% TFA (70:30, 60:40); stationary phase: Phenomenex, Kinetex 5 μ, C18, 100 Å (150 × 4.6 mm); flux: 1 mL/min; injection: 10 μL, 265, 290, 320 nm wavelength. HPLC analyses were performed on an Agilent HPLC 1260 Infinity Series Integrated System (Agilent Technologies, Milan, Italy).

[2] = Lipophilicity by RP-HPLC (polycratic capacity factor); format: physicochemical; conditions: capacity factor extrapolated to 100% aqueous mobile phase, aqueous component pH 4.7
Description: To quantitate the effect of hydrophobicity on the biological activity of the examined compounds, a relative lipophilicity scale was determined by RP-HPLC [20]. The polycratic capacity factor (log k′w) for each compound in Table 2 was experimentally determined (details in the experimental section) and compared with 1-octanol–water partition coefficient calculated (Clog P) with ACDLabs software (release 10.0; Advanced Chemistry Development, Inc., Toronto, ON, Canada). Log k′w values are quite well correlated with Clog Ps for the whole series (r^2 = 0.791). However, omitting from the regression the two Mannich bases 8b and 8c, which, due to their basicity (pKas about 6.9, estimated by ACDLabs software), should be predominantly in the protonated forms at pH 4.7 (i.e., the pH of the aqueous component of the mobile phase in RP-HPLC), the correlation slightly improves (r^2 = 0.859), providing a linear equation with a slope equal to +0.8 and an intercept of about −0.1.
The lipophilicity parameters were determined by an RP-HPLC technique. Methanol solution of DHPIQ derivatives (1 mg/mL) were analyzed by an Agilent 1260 infinite HPLC system (Agilent Technologies, Milan, Italy) equipped with a diode array detector (DAD), and a Phenomenex, Kinetex 5 μ, C18, 100 Å (150 × 4.6 mm), and eluted with different percentage of mobile phase composition (0.05 increments of MeOH volume fractions in 20 mM ammonium formate buffer at pH 4.7 or water 0.1% v/v TFA, with φ ranging between 0.85 and 0.30). The chromatographic measurements were carried out at 25 ± 1 °C at a flow rate of 1 mL·min^−1 and at 265, 290, 320 nm wavelengths. The log of capacity factors (log k′ = log (tR − t0)/t0) of each compound at different mobile phase compositions was calculated; tR represents the retention time of the solute and t0 is the column dead time, measured as the elution time of a KNO3 solution in MeOH. For each compound, the log k′ values increased linearly with decreasing MeOH volume fraction. The logarithms of the capacity factor extrapolated to 100% aqueous mobile phase (log k′w) were calculated from the linear regressions on at least five data points (r^2 > 0.9984).

[3] = system: RD (rhabdomyosarcoma) cells; conditions: mean (SD), cited from earlier work
[4] = system: HCT116 (colon cancer) cells; conditions: mean (SD), cited from earlier work
[5] = system: HeLa (adenocarcinoma of the cervix uterus) cells; conditions: mean (SD), cited from earlier work
[6] = system: A549 (lung adenocarcinoma) cells; conditions: mean (SD), cited from earlier work
P-glycoprotein (P-gp) [7] = target: T1, P-glycoprotein (P-gp) (Homo sapiens, UniProt P08183); assay: Calcein-AM transport inhibition in MDCK-MDR1 cells overexpressing P-gp; conditions: for IC50: P-gp, IC50, MDCK-MDR1 cells, calcein-AM, mean (SD), at least two independent experiments in triplicate
T1 sequence (P08183 whole entry): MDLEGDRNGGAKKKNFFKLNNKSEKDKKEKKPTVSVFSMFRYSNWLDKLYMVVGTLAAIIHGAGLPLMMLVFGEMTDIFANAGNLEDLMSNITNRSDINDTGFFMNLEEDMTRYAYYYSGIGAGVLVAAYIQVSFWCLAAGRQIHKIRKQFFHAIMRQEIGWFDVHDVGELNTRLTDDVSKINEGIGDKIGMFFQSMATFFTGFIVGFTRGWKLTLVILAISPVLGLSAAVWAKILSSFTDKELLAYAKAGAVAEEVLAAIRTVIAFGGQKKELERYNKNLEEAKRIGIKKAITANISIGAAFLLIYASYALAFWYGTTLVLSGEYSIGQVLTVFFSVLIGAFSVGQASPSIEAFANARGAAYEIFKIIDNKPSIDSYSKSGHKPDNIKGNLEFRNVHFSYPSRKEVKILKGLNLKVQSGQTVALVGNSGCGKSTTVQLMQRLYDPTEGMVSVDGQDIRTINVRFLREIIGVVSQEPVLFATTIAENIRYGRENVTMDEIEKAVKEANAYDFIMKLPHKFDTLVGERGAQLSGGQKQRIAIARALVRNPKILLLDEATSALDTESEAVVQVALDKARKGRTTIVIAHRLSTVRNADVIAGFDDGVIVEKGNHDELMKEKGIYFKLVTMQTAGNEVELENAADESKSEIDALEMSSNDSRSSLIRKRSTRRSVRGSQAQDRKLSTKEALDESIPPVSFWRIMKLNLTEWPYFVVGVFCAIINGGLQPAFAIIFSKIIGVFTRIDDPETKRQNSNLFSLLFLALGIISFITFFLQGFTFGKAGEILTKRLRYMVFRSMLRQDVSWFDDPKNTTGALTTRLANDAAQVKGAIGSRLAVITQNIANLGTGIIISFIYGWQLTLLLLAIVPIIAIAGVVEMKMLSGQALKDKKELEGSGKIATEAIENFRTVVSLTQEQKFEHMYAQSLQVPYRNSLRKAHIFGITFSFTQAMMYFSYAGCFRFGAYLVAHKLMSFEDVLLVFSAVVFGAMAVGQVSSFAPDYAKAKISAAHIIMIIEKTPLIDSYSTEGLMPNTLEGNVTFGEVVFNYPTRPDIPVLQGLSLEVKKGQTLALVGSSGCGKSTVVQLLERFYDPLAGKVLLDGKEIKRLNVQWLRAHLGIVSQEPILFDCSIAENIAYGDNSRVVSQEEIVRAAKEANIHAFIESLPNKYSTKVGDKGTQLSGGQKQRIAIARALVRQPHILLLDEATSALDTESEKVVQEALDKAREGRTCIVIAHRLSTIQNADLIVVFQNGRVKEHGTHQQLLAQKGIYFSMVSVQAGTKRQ
Description: (§3) The P-gp inhibitory potency of eight DHPIQs was evaluated by measuring the transport inhibition of calcein-AM, a profluorescent P-gp substrate, in the MDCK-MDR1 cell line overexpressing P-gp. Moreover, to evaluate the MRP1 inhibitor activity, the same compounds were screened in MDCK-MRP1 cells overexpressing MRP1.
(§4) According to previously described assays [9], MDCK-MDR1 and MDCK-MRP1 cell lines (50,000 cells per well) were seeded into a black CulturePlate 96-well plate with 100 μL medium and allowed to become confluent overnight. […] Saline buffer (100 μL) was added to each well, and the plate was read by a PerkinElmer Victor3 spectrofluorimeter at excitation and emission wavelengths of 485 nm and 535 nm, respectively. In these experimental conditions, calcein cell accumulation in the absence and in the presence of the test compound was evaluated, and the fluorescence basal level was estimated by untreated cells. In the treated wells, the increase of fluorescence with respect to basal level was measured. IC50 values were determined by interpolating the curve of fluorescence increase percentage versus log [conc.].

[8] = target: multidrug-resistance-associated protein-1 (MRP1) (Homo sapiens, UniProt P33527); assay: Calcein-AM transport inhibition in MDCK-MRP1 cells overexpressing MRP1
multidrug-resistance-associated protein-1 (MRP1), sequence (P33527 whole entry): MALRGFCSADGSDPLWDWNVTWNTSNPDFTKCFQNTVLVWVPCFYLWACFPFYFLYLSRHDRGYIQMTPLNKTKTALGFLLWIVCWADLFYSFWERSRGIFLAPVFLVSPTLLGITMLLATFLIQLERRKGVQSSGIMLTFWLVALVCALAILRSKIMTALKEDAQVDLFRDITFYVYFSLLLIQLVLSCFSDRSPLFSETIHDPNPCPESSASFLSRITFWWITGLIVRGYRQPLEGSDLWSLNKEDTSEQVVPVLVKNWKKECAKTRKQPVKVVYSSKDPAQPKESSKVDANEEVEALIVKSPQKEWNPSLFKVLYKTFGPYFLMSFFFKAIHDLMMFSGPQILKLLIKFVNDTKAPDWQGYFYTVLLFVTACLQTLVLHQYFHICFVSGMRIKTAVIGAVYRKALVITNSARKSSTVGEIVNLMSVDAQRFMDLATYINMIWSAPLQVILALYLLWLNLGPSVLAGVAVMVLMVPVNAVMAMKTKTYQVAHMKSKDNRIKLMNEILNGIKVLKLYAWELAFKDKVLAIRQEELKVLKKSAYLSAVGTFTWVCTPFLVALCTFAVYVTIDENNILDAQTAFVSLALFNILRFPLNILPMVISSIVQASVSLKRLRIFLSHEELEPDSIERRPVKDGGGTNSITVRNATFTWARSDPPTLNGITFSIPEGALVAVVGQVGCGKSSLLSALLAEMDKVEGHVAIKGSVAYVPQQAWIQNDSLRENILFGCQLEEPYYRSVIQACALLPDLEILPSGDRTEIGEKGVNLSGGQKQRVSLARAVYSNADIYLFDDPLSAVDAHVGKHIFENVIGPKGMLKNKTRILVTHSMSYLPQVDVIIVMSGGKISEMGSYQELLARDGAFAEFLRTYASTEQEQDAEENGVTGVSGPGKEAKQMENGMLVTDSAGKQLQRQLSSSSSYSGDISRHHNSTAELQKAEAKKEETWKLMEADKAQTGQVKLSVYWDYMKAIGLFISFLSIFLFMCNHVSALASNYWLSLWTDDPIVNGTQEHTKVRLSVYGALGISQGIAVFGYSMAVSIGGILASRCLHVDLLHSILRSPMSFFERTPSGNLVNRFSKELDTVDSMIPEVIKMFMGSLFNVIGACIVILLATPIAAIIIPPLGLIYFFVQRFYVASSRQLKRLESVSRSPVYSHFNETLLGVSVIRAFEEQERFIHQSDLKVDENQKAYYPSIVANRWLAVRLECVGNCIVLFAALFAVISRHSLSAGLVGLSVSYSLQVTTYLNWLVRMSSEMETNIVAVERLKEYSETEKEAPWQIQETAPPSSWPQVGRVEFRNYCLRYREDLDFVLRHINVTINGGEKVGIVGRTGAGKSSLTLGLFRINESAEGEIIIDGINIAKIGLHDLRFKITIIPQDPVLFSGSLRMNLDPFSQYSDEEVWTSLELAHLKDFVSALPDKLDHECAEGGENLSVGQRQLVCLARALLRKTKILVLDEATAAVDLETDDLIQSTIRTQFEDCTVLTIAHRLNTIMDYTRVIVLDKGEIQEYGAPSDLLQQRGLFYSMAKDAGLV
Description: as §3, §4

[9] = target: T2, human serum albumin (HSA) (Homo sapiens, UniProt P02768); assay: Binding affinity to immobilized HSA by surface plasmon resonance (SPR)
T2 sequence (P02768 25-609): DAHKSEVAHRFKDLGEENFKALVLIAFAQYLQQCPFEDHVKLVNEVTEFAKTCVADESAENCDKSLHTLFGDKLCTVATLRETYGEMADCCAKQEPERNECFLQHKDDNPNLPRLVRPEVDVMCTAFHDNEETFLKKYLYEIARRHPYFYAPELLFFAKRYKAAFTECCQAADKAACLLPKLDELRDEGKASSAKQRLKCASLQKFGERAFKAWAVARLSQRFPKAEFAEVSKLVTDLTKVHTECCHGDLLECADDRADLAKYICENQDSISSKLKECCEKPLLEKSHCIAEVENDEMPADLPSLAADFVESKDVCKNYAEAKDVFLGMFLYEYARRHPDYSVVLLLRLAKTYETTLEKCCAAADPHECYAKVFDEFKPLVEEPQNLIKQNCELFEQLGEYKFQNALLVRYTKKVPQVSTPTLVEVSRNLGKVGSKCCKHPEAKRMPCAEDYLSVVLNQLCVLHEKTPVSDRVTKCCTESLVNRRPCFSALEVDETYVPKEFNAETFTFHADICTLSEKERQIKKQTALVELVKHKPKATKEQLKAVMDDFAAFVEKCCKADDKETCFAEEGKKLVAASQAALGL
Description: (§5) By plotting the response at equilibrium, the dissociation constant (KD) value was determined for each test compound.
(§6) Fatty acid-free HSA (A3782 from Merck, KGaA Sigma-Aldrich, Darmstadt, Germany) was applied to functionalize the surface of a COOH V sensor chip (Pall FortèBio, Fremont Boulevard, CA, USA), by using amine coupling (EDC/NHS). HSA aqueous stock solution was diluted at the final concentration of 50 μg·mL^−1 in 10 mM sodium acetate buffer (pH 5.0), and immobilization in peripheral flow cells 1 and 3 (unmodified dextran surface in middle flow cell 2 used as a reference) at a final apparent level of about 5000 RU was achieved by applying the following protocol: injection of EDC/NHS (freshly mixed 0.4 M EDC and 0.1 M NHS) 1:1 v/v at a flow of 25 μL·min^−1 for 4 min; injection of HSA solution at a flow of 25 μL·min^−1 for 8 min; capping on unreacted activated carboxyl groups by injection of 1 M ethanolamine solution (pH 9) at a flow of 25 μL·min^−1 for 8 min. The functionalized surface was then treated with repeated injection of 4 M NaCl, as a regenerating reagent, and conditioned overnight prior to use with pH 7.4 PBS (10 mM NaH2PO4 and 150 mM NaCl) as a running buffer. Each cycle (without the need of regeneration) for binding assay to HSA was carried out in PBS/4% v/v DMSO and consisted of a run buffer injection (60 s), injection of analyte single concentration for 120 s (ranging from 1 to 200 μM) at a flow 20 μL·min^−1, and a dissociation phase for 150 s (flow 20 μL·min^−1). Each measurement was performed at least in triplicate and analyzed by using QDAT software, vers 2.2.0.7 (non-linear regression analysis of 1:1 stoichiometric reversible binding model), and double referencing.

P-glycoprotein (P-gp) [10] = target: T1, P-glycoprotein (P-gp); set-up: expressed in transfected cells; host or cells: MDCK-MDR1 (gift from Prof. P. Borst, NKI-AVL); method as in PMID 29802687; conditions: MDCK-MDR1 cells; ref [9]; cited from earlier work
[11] = system: RD (rhabdomyosarcoma) cells; assay: MTT antiproliferative (cytotoxicity) assay, RD cells; format: cell-based, Human; conditions: 72 h, mean (SD), triplicate, n.a. = not active at 100 μM, >100 = less than 60% inhibition at 100 μM
Description: (§1) The newly synthesized 1-Ph-DHPIQs, along with the previously reported derivatives 4a, 4c, 6a and 6c, with camptothecin and doxorubicin as positive controls, were tested at the maximum concentration of 100 μM for their antiproliferative activity, using an MTT assay on RD, HCT116, HeLa and A549 cancer cell lines. Compounds showing more than 50% inhibition were tested at lower scalar concentrations, and IC50 values were calculated by interpolation of the dose-response curves (Table 1). […]
(§2) The antiproliferative activity of the newly synthesized compounds, along with some previously reported analogs, and camptothecin and doxorubicin as positive controls was determined by the MTT (3-(4,5-dimethylthiazol-2-yl)-2,5-diphenyltetrazolium bromide) assay. The cells were seeded at a concentration of 1 × 10 ^4 cells/200 μL in a 96-well plate and cultured at 37 °C in a humidified atmosphere with 5% CO2. After 24 h of incubation, scalar concentrations of each test compound (100 to 1.56 μmol·L^−1) were added to the cancer cell culture and the cells were then cultured under the same conditions for 72 hr. Each concentration of the test compound was assayed in triplicate. […] Wells with the 0.1% v/v DMSO were used as controls. After incubation, 20 μL of MTT (5 mg·mL^−1) was added to each well and the plates were incubated for a further 2 h. Next, media were removed from the plates, and 100 μL of DMSO was added to each well to dissolve the formed formazan crystals. Using a flatbed analyzer (Victor^3, PerkinElmer, Waltham, MA, USA), the optical density was determined at 530 nm, minus the measured background absorbance at 620 nm. The concentration value, which causes 50% inhibition of cell population growth (IC50), was determined from the dose-dependent curves using the OriginPro 9.0 software.

[12] = system: HCT116 (colon cancer) cells; assay: MTT antiproliferative (cytotoxicity) assay, HCT116 cells; format: cell-based, Human; conditions: mean (SD), triplicate, n.a. = not active at 100 μM, >100 = less than 60% inhibition at 100 μM
Description: as §1, §2

[13] = system: HeLa (adenocarcinoma of the cervix uterus) cells; assay: MTT antiproliferative (cytotoxicity) assay, HeLa cells; format: cell-based, Human; conditions: 72 h, mean (SD), triplicate, n.a. = not active at 100 μM, >100 = less than 60% inhibition at 100 μM
Description: as §1, §2

[14] = system: A549 (lung adenocarcinoma) cells; assay: MTT antiproliferative (cytotoxicity) assay, A549 cells; format: cell-based, Human; conditions: mean (SD), triplicate, n.a. = not active at 100 μM, >100 = less than 60% inhibition at 100 μM
Description: The antiproliferative activity of the newly synthesized compounds, along with some previously reported analogs, and camptothecin and doxorubicin as positive controls was determined by the MTT (3-(4,5-dimethylthiazol-2-yl)-2,5-diphenyltetrazolium bromide) assay. […] Each concentration of the test compound was assayed in triplicate. […] Wells with the 0.1% v/v DMSO were used as controls. After incubation, 20 μL of MTT (5 mg·mL^−1) was added to each well and the plates were incubated for a further 2 h. Next, media were removed from the plates, and 100 μL of DMSO was added to each well to dissolve the formed formazan crystals. Using a flatbed analyzer (Victor^3, PerkinElmer, Waltham, MA, USA), the optical density was determined at 530 nm, minus the measured background absorbance at 620 nm.

[15] = Hydrolytic stability monitored by RP-HPLC; format: physicochemical; conditions: 0.15 M KCl
Source text: In particular, the transformation of the DHPIQ-2-aldehyde via Mannich reaction (8b,c) opens the road to future developments of new water-soluble antiproliferative DHPIQ derivatives endowed with the ability to inhibit P-gp and reverse MDR.

[16] = target: T2, human serum albumin (HSA); conditions: 10 μM, pH 7.4
Description: as §5, §6

P-gp versus MRP1 = P-gp versus MRP1 (Homo sapiens, UniProt P08183); assay: Calcein-AM transport inhibition in MDCK-MDR1 cells overexpressing P-gp; conditions: human, MDCK-MDR1 cells and MDCK-MRP1 cells, probe calcein-AM
P-gp versus MRP1, sequence (P08183 whole entry): as the sequence (P08183 whole entry) above
Description: as §3, §4

[17] = aqueous buffer, PBS (50 mM, pH 7.4, 0.15 M KCl) at 25 ± 1 °C, read-out: S (solubility)

In the case of `COc1cc2c(cc1OC)-c1c(-c3ccc(Cl)cc3)c(C=O)cn1CC2` [Compound 4a], the solubility at 2 h [1, 17] is listed as 6.66 µM, the “Log k′w” value [2] is listed as 4.32 and the IC50 ([3]; ref [5]) is listed as 17.6 µM. For the same compound, the IC50 ([4]; ref [5]) was 22 µM, the IC50 ([5]; ref [5]) was 33 µM and the IC50 ([6]; ref [5]) was 38.6 µM. The IC50 (P-glycoprotein (P-gp) [7]) was 25.3 µM, the “P-gp/MRP1 selectivity (toward P-gp)” value (P-glycoprotein (P-gp) [7]; ratio of MRP1 and P-gp inhibition potency) was “unselective” and the IC50 [8] was 21.9 µM. It also gave a Kd [9] of 1.6 µM.
In the case of `CCOc1ccc(-c2c(C=O)cn3c2-c2cc(OCC)c(OCC)cc2CC3)cc1OCC` [Compound 4c], the IC50 ([3]; ref [8]) is given as 21.3 µM, the IC50 ([4]; ref [8]) is given as 11.8 µM and the IC50 ([5]; ref [8]) is given as 44.5 µM. The IC50 ([6]; ref [8]) was 19.7 µM and the IC50 (P-glycoprotein (P-gp) [10]) was < 0.5 µM.
In the case of `CCOc1ccc(-c2c(CN3CCOCC3)cn3c2-c2cc(OCC)c(OCC)cc2CC3)cc1OCC` [Compound 8c, 1-(3,4-Diethoxyphenyl)-8,9-diethoxy-2-(morpholin-4-ylmethyl)-5,6-dihydropyrrolo[2,1-a]isoquinoline], the IC50 [11] is reported as < 20 µM and 18.6 µM, the IC50 ([11]; Homo sapiens, Rhabdomyosarcoma cell) is reported as < 21 µM and the IC50 ([12]; 72 h) is reported as 15.7 µM. For the same compound, the IC50 ([12]; Homo sapiens, HCT-116, 72 h) was < 21 µM, the IC50 [13] was 17.5 µM and the IC50 ([13]; Homo sapiens, HeLa) was < 21 µM. For the same compound, the IC50 ([14]; 72 h) was 20.8 µM, the IC50 ([14]; Homo sapiens, A549, 72 h) was < 21 µM and the solubility at 2 h [1, 17] was 41.7 µM. The solubility at 2 h ([1]; pH 7.4, aqueous buffer, ‘practically insoluble’ threshold of US and European Pharmacopoeia, read-out: Solubility category in buffered water solution at neutral pH) was < 100 µg/mL, the “Log k′w” value [2] was 4.31 and the “Hydrolytic stability at pH 2” value ([15]; 0.01 M HClaq, pH 2, 25 °C) was “stable”. For the same compound, the “Hydrolytic stability at pH 7.4” value ([15]; 50 mM PBS, pH 7.4, 25 °C) was “stable”, the “Predicted fraction bound to HSA” value [16] was “less than 40%” and the IC50 (P-glycoprotein (P-gp) [7]) was < 0.5 µM and 0.45 µM. For the same compound, the selectivity ratio (P-gp versus MRP1) was ~30, the IC50 [8] was 12.1 µM and the Kd [9] was 26.9 µM.
